Data set [1] can be described thus: Circular dichroism (CD): specificity and structural assembly of peptides. In kind it is physicochemical. Particulars: circular dichroism (FIG. 2A, FIG. 14A).
Text: We designed and prepared peptide sequences that form a tetrameric coiled coil,^14,15 but discourage self-interaction (positively charged amino acids in docking, negatively charged in receiving).
For data set [2], the system named is Panc1 Cells. The data set is described as follows: ADC cytotoxicity, MTT cell viability assay. It is filed as cell-based, human. A general note: Tetrazolium dyes change colour on reduction, which living cells bring about.
The next data set deals with BxPC-3. The data set is described as follows: ADC cytotoxicity, MTT cell viability assay. In kind it is cell-based. As to the method: (§1) Cell viability was assessed by an MTT assay in Panc1 cells and other cell lines at 72 hours post-treatment with increasing concentrations of the ADC and relevant controls. The assay confluence was 20% at the start and up to 60% confluence.
(§2) Cell viability was assessed by an MTT assay in other pancreatic cancer cell lines.
(§3) Cell viability was assessed by an MTT assay in pancreatic cancer cell lines at 72 hours post-treatment with increasing concentrations of the ADC and relevant controls.

Data set [3] has as its system Panc1 Cells. The data set is described as follows: Cell viability in response to increasing doses of mertansine (FIG. 19). In kind it is cell-based, human. Particulars: cell viability (FIG. 19). As for the experimental part:
(§4) Cell viability was measured in response to increasing doses of mertansine in Panc1 and MIA PaCa2 cell lines to determine the IC50 compared to other chemotherapeutic agents (gemcitabine and Nab-paclitaxel) (FIG. 19). Panc1 cells are a human pancreatic cancer cell line isolated from a pancreatic carcinoma of ductal cell origin. MIA PaCa-2 cells are another type of pancreatic cancer cell line that was derived from the carcinoma of a patient.

The next data set concerns MIA PaCa2 Cells. The description is as above. Particulars: cell viability (FIG. 19). It is filed as cell-based, human. As for the experimental part:
as §4

Another data set has as its system H6c7. Description: ADC cytotoxicity in normal cell lines, MTT assay. In kind it is cell-based. Particulars: H6c7, additional characterization (FIG. 41).
A further data set concerns KV2 cells. The data set is described as follows: ADC cytotoxicity in normal cell lines, MTT assay. Particulars: read-out: IC50 / cytotoxicity. As to the method:
(§5) Cell viability was assessed by an MTT assay in KV2 cells and other normal cell lines at 72 hours post-treatment with increasing concentrations of the ADC and relevant controls.
(§6) Cell viability was assessed by an MTT assay in normal cell lines at 72 hours post-treatment with increasing concentrations of the ADC and relevant controls.

The test system of another data set is HUVECs. Description: ADC cytotoxicity in normal cell lines, MTT assay. Particulars: read-out: IC50 / cytotoxicity; HUVEC, additional characterization (FIG. 41). As for the experimental part: as §5, §6
A further data set deals with mIMCD. The data set is described as follows: ADC cytotoxicity in normal cell lines, MTT assay. As for the experimental part:
as §5, §6

The test system of the next data set is BJ fibroblasts. Description: ADC cytotoxicity in normal cell lines, MTT assay. As for the experimental part:
as §5, §6

The subject of another data set is Capan-1. The data set is described as follows: ADC cytotoxicity, MTT cell viability assay. In kind it is cell-based, human. As to the method:
as §1, §2, §3

The test system of another data set is MIA PaCa2. Description: ADC cytotoxicity, MTT cell viability assay. It is filed as cell-based, human. As for the experimental part:
as §1, §2, §3

For data set [4] the following is noted: first value of 'x vs. y', second value is an unnamed comparator arm, cited from earlier work; for OS: overall survival; for PFS: progression-free survival.
Setting [5] is: read-out: IC50 / cytotoxicity, MTT (FIG. 32), NS = not significantly different from 100% viability of control.
The mark [6] stands for this setting: read-out: IC50 / cytotoxicity, additional characterization (FIG. 41).

Like-named read-outs stand apart in the source and are kept apart here.

For the compound MK(LKKIKSV)4VGER [Peptide V/K], in [1], the “self-assembly / coiled coil formation” value is given as “do not self-assemble”.

Consider `COc1cc2cc(c1Cl)N(C)C(=O)C[C@H](OC(=O)[C@H](C)N(C)C(=O)CCS)[C@]1(C)O[C@H]1[C@H](C)[C@@H]1C[C@@](O)(NC(=O)O1)[C@H](OC)/C=C/C=C(\C)C2` [Mertansine, mertansine], for which the IC50 came to 1.98 nM in the data set with Panc1 Cells [2] (Panc1, MTT, 72 hours (FIG. 28-30)); 1.98 nM in the data set on Panc1 Cells [2] (Panc1, additional characterization (FIG. 39)); 18.8 nM in the data set with BxPC-3 (BxPC-3, MTT (FIG. 30)); 18.8 nM in the data set on BxPC-3 (BxPC-3, additional characterization (FIG. 39)); 1.19 nM in the data set with Panc1 Cells [3]; 0.268 nM in the data set on MIA PaCa2 Cells. The IC50 was determined as 2.4 nM in the data set on H6c7; 289 nM in the data set on KV2 cells (KV2, additional characterization (FIG. 41)); 95.5 nM in the data set on KV2 cells (KV-2, MTT, 72 hours (FIG. 31-32), NS = not significantly different from 100% viability of control); 2.7 nM in the data set on HUVECs; 3 nM in the data set on mIMCD (setting [5]); 3 nM with mIMCD (setting [6]). Moreover, the IC50 in the data set with BJ fibroblasts (setting [5]) was found to be 16.8 nM; in the data set on BJ fibroblasts (setting [6]) it was 16.8 nM; in the data set with Capan-1 (Capan-1, MTT (FIG. 30)), 22.1 nM; with Capan-1 (Capan-1, additional characterization (FIG. 39)), 22.1 nM; in the data set on MIA PaCa2 (MIA PaCa2, MTT (FIG. 29-30)), 0.31 nM; in the data set with MIA PaCa2 (MIA PaCa2, additional characterization (FIG. 39)), 0.31 nM.

Turning to Nimotuzumab, in data set [4], the OS is reported as 8.6 vs. 6.0 mo and the PFS is recorded as 5.3 vs. 3.6 mo.

With “MK(LEEIVSE)2LEEIVTELEEIVSEVGER (MKLEEIVSELEEIVSELEEIVTELEEIVSEVGER) [Peptide V/E, acidic V/E-type docking peptide]”, in data set [1], the “self-assembly / coiled coil formation” value is reported as “do not self-assemble”.

Turning to `C#Cc1cccc(Nc2ncnc3cc(OCCOC)c(OCCOC)cc23)c1` [Erlotinib], in [4], the OS is 6.2 vs. 5.9 mo and the PFS is recorded as 3.8 vs. 3.6 mo.

As for Cixutumumab, in [4], the OS is 7.0 vs. 6.7 mo and the PFS is reported as 3.6 vs 3.6 mo.

In the case of `Nc1ccn([C@@H]2O[C@H](CO)[C@@H](O)C2(F)F)c(=O)n1` [Gemcitabine], the IC50 in the data set with Panc1 Cells [2] (Homo sapiens, PANC-1, Panc1, MTT, 72 hours (FIG. 28)) turned out to be 700 nM; with MIA PaCa2 (Homo sapiens, MIA PaCa-2, MIA PaCa2, MTT (FIG. 29-30)), 256 nM.

Source of the values: US10953107B2, “Polypeptide compositions and methods for site-specific targeting of therapeutic agents” (Trustees of Boston University, priority 2018, dated 2021).
